Results on ten molecules are retold here after patent US20260295059A1, “BROAD-SPECTRUM ANTIBIOTIC HYBRIDS FOR THE TREATMENT OF MULTI-DRUG RESISTANT INFECTIONS” (priority 2023, published 2026).

Data set [1] has as its system P. aeruginosa. Briefly: Activity against challenge panel of 207 P. aeruginosa isolates (MIC50/MIC90). Type of data set: cell-based. The following applies: Pseudomonas aeruginosa. On the procedure: (§1) Dry Powder Formulation and in vivo Efficacy of UOM-001 and UOM-005 in a Lung Infection Model. […] The activity of DPI UOM-001 and comparator antibiotics was assessed against a challenge panel consisting of 207 P. aeruginosa isolates collected from different parts of the world; 105 isolates were enriched for resistance against β-lactam/β-lactamase inhibitor combinations (Table 6). […] The teixobactin-lipopeptide hybrids have a labile linker between the two antibiotic components that allows for sustained release of each component at the infection site simultaneously, thereby targeting their synergistic activity. Whereas the individual components when administered together likely display different disposition, uptake, and elimination characteristics, and therefore become diffusely distributed from each other, resulting in the loss of antibacterial synergy. […] In contrast, following intravenous administration of an identical dose, the ELF concentration of UOM-001 was below the limit of quantification (0.1 μg/mL). […] Pulmonary surfactant is a primary component of the ELF which can bind antibiotics that can impede the antibacterial activity of the drug. The binding of UOM-001 and teixobactin (5 mg/L for 4 h 37° C.) to lung surfactant or its individual components was determined by ultracentrifugation and LC-MS (FIG. 5C). The low binding of UOM-001 to lung surfactant is consistent with its good efficacy in the lung infection model. The effect of surfactant on the in vitro antibacterial activity of UOM-001 was assessed with the use of three polymyxin-resistant P. aeruginosa cystic fibrosis isolates. Beractant (Survanta™; Abbott Laboratories) served as the pulmonary surfactant. Beractant is a bovine-derived surfactant containing 25 mg/mL phospholipids. Although its composition differs slightly from that of human surfactant, it is functionally equivalent. For surfactant testing, the bacterial growth medium was supplemented with 10% beractant (=2.5 mg/mL). Since the surfactant produces turbidity, the minimum bactericidal concentration (MBC) was used to compare potency of UOM-001 in the absence or presence of surfactant. The MBCs of UOM-001 (0.125-0.5 mg/L) were not affected even when tested with the highest concentrations of surfactant (2.5 mg/mL, 10%).

A further data set has as its system Gram-positive bacteria. As to the kind of experiment: Antibacterial activity against Gram-positive bacteria. Type of data set: cell-based. The source says: (§2) Polymyxin lipopeptides can act as powerful potentiators for FDA-approved non-antibiotic drugs, by permeabilizing the Gram-negative outer membrane, allowing the non-antibiotic drug to enter the bacterial cell and reach its intracellular targets (Hussein et al. (2018) Comput. Struct. Biotechnol. J. 16:587-599; Hussein et al. (2017) Microbiol. Drug Resist. 23:640-650; Jasim et al. (2017) J. Biomed. Nanotechnol. 13:447-457; Schneider et al. (2016) ACS Infect. Dis. 2:478-488; Tran et al. (2018) Front. Pharmacol. 9:359; Tran et al. (2018) Front. Microbiol. 9:721; Schneider et al. (2017) Essays Biochem. 61:115-125; Diep et al. (2017) Antimicrob. Agents Chemother. 61; Rao et al. (2016) J. Antimicrob. Chemother. 71:3148-3156; Sharma et al. (2017) Int. J. Antimicrob. Agents 49:224-232).

A further data set has as its system Gram-negative bacteria. Briefly: Antibacterial activity against Gram-negative bacteria. Type of data set: cell-based.
Excerpt: as §2

For the next data set, the system named is PDR P. aeruginosa. Briefly: Activity against challenge panel of 207 P. aeruginosa isolates (MIC50/MIC90). Type of data set: cell-based. The following applies: P. aeruginosa (n = 207). As to the method:
as §1

The subject of a further data set is pulmonary infections. The following applies: 230 critically-ill patients, cited from earlier work.
Data set [2] concerns P. aeruginosa. Briefly: MIC determination, P. aeruginosa strains. The following applies: 11 PDR P. aeruginosa strains. Type of data set: cell-based. The source says:
(§3) Agents Chemother. 61; Rao et al. (2016) J. Antimicrob. Chemother. 71:3148-3156; Sharma et al. (2017) Int. J. Antimicrob. Agents 49:224-232). Subsequently, this SAR-based design strategy has been expanded to include teixobactins conjugated via labile and non-labile linkers to the polymyxin-lipopeptides (e.g., polymyxin B nonapeptide, FADDI-002 and octapeptin C4) (Velkov et al. (2018) Cell Chem. Biol. 25:380-391 e385; Velkov et al. (2013) Future Microbiol. 8:711-724; Velkov et al. (2014) ACS Chem. Biol. 9:1172-1177; Velkov et al. (2010) J. Med. Chem 53:1898-1916), which generated potent teixobactin lipopeptide hybrids active against teixobactin-resistant PDR Gram-negative ‘superbugs’ (Table 4).

A further data set deals with S. aureus. As to the kind of experiment: MIC determination, S. aureus strains. Type of data set: cell-based. The following applies: 3 PDR S. aureus strains.
Excerpt: as §3

The test system of a further data set is A. baumannii. Briefly: MIC determination, A. baumannii strains. Type of data set: cell-based. The following applies: 4 PDR A. baumannii strains.
Excerpt: as §3

Data set [3] relates to P. aeruginosa FADDI-PA021m. Briefly: MIC against polymyxin-resistant cystic fibrosis isolate FADDI-PA021m. Type of data set: cell-based.
Data set [4] deals with P. aeruginosa FADDI-PA021m. As to the kind of experiment: Static time-kill study, FADDI-PA021m. Type of data set: cell-based. The following applies: native teixobactin or polymyxin B (MICs >128 mg/L).

Where a SMILES comes first, the peptide text is derived from it. Bridges are numbered along the chain shown (N, C = ends). [ ]: non-standard residue; d: D form. The star is where a group is joined. ξ: configuration not given here. Decanoyl(3R-OH) = CCCCCCC[C@@H](O)CC(=O)*; Decanoyl = CCCCCCCCCC(=O)*; dDab = NCC[C@@H](N)C(=O)O; Dab = NCC[C@H](N)C(=O)O; ξDab = NCCC(N)C(=O)O

Broadly, the MIC50 is an inhibitory concentration at the 50% level, which refers to growth in some studies and to a panel of isolates in others. What is called MIC90 is the lowest concentration that inhibits either 90% of growth or 90% of the strains tested, depending on the study. Turning to `NCC[C@H](O)C(=O)N[C@@H]1C[C@H](N)[C@@H](O[C@H]2O[C@H](CN)[C@@H](O)[C@H](O)[C@H]2O)[C@H](O)[C@H]1O[C@H]1O[C@H](CO)[C@@H](O)[C@H](N)[C@H]1O` [AMK, amikacin], in the data set on P. aeruginosa [1], the MIC50 came out at 16 µg/mL and the MIC90 was more than 32 µg/mL.
Take `CCCCCCCCCC(=O)N[C@H](CCN)C(=O)N[C@H]1CCNC(=O)[C@H](CC(C)C)NC(=O)[C@H](CCN)NC(=O)[C@H](CCN)NC(=O)[C@H](CC(C)C)NC(=O)[C@@H](Cc2ccccc2)NC(=O)[C@H](CCN)NC1=O` [FADDI-115] (Decanoyl-[dDab][Dab][Dab][dF]L[Dab][Dab]L; lactam 2-C): the “activity against Gram-positive bacteria” value with Gram-positive bacteria is recorded as “potent activity”. For the same molecule, the “activity against Gram-negative bacteria” value in the data set with Gram-negative bacteria was “potent activity”.
Regarding `C[C@H]1COc2c(N3CCN(C)CC3)c(F)cc3c(=O)c(C(=O)O)cn1c23` [LEVO, levofloxacin], in the data set with P. aeruginosa [1], the MIC50 was 8 µg/mL and the MIC90 was more than 16 µg/mL.
On to `C[C@@H](O)[C@H]1C(=O)N2C(C(=O)O)=C(S[C@@H]3CN[C@H](C(=O)N(C)C)C3)[C@H](C)[C@H]12` [MER, meropenem], for which, in the data set with P. aeruginosa [1], the MIC50 amounted to 16 µg/mL and the MIC90 was more than 32 µg/mL.
For `CCCCCCC[C@@H](O)CC(=O)N[C@H](CCN)C(=O)NC1CCNC(=O)[C@H](CC(C)C)NC(=O)[C@H](CCN)NC(=O)[C@H](CCN)NC(=O)[C@H](CC(C)C)NC(=O)[C@@H](Cc2ccccc2)NC(=O)[C@H](CCN)NC1=O` (stereo partly drawn) [octapeptin C4] ({Decanoyl(3R-OH)}-[dDab][ξDab][Dab][dF]L[Dab][Dab]L; lactam 2-C), the “activity against Gram-positive bacteria” value in the data set on Gram-positive bacteria is “potent activity”. Besides, the “activity against Gram-negative bacteria” value in the data set on Gram-negative bacteria is reported as “potent activity”.
On to ceftazidime-avibactam [CAZ-AVI], for which, in the data set on PDR P. aeruginosa, the MIC50 was determined as 2 µg/mL and the MIC90 turned out to be 8 µg/mL.
For the molecule colistin, the “efficacy of parenteral colistin for pulmonary infections” value in the data set on pulmonary infections is listed as “disappointing”. Besides, the “exposure of colistin at the infection site” value in the data set on pulmonary infections (parenteral, pulmonary infections) was “very limited exposure at the infection site”. Further, the MIC50 with PDR P. aeruginosa turned out to be 1 µg/mL. The MIC90 in the data set with PDR P. aeruginosa came to 1 µg/mL. Further, the “colistin MIC (PDR strains)” value in the data set on P. aeruginosa [2] is 8 to 128 µg/mL; with S. aureus, more than 128 µg/mL; in the data set on A. baumannii it was 8 to 128 µg/mL.
Turning to gentamicin [GNT], in the data set with PDR P. aeruginosa, the MIC50 is 8 µg/mL and the MIC90 was more than 16 µg/mL.
The like results for piperacillin-tazobactam [PIP-TAZ] were, in that order, 64 µg/mL and more than 128 µg/mL.
In general, MIC refers to the smallest concentration in the dilution series that meets the test's criterion for growth inhibition. Molecule polymyxin B showed an MIC in data set [3] of more than 128 µg/mL. Moreover, in data set [4], the killing entry is on record as “no killing was observed”.
